We go through 17 compounds from ChEMBL document CHEMBL3102730, “Synthesis and evaluation of isoleucine derived angiotensin II AT(2) receptor ligands” (Bioorg Med Chem Lett, 2014).

Active and inactive are the calls of the source. No cut-off for these calls is given here.

For experiment [1], the target named is T1, Type-2 angiotensin II receptor (Homo sapiens, UniProt P50052).
T1 sequence (P50052 whole entry): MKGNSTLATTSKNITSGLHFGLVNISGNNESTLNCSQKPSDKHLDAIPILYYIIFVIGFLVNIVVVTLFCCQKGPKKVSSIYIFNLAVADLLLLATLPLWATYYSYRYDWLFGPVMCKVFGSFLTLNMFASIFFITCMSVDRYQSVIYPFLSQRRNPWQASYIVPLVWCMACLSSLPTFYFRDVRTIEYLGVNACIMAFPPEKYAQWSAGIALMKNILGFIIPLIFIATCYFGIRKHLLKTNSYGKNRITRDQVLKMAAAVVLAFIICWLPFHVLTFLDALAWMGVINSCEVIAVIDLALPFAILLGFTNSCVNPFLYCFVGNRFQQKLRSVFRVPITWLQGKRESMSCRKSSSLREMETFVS
Description: Displacement of [125I]CGP-42112A from human AT2 receptor expressed in HEK293 cells. It is filed as cell-based. (In general: In a radioligand displacement assay an active substance lowers the binding of a labelled ligand.)

Experiment [2] addresses T2, Type-2 angiotensin II receptor (Homo sapiens) (UniProt P50052).
T2 sequence (whole entry): T1 sequence (P50052 whole entry)
Briefly: Displacement of [125I]CGP-42112A from human AT2 receptor expressed in HEK293 cells at 10 uM. It counts as cell-based.

The target in experiment [3] is T3, Type-1 angiotensin II receptor (Homo sapiens) (UniProt P30556).
T3 sequence (whole entry): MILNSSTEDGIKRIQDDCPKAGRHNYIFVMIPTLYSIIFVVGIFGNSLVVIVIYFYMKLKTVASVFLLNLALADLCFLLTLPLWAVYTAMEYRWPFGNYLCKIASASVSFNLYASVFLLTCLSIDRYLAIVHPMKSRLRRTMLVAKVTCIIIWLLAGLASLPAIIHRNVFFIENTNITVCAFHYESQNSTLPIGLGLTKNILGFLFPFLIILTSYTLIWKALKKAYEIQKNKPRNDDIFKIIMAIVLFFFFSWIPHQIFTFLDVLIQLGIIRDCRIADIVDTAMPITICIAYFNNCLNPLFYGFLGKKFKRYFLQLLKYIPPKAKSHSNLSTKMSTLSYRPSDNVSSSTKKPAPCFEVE
Briefly: Binding affinity to AT1 receptor (unknown origin).

Experiment [4] deals with T2, Type-2 angiotensin II receptor (Homo sapiens). Description: Displacement of [125I]CGP-42112A from human AT2 receptor expressed in HEK293 cells at 1 uM. It is filed as cell-based.
Experiment [5] concerns the target T1, Type-2 angiotensin II receptor. Description: Displacement of [125I]Sarile from human AT2 receptor expressed in HEK293 cells. It counts as cell-based.

As usually defined, the Ki is a dissociation constant, usually derived from enzyme kinetics or from competition with a known ligand. A high value points to a looser hold on the target. A word on the inhibition: it is how much of the control response was suppressed. Consider `CC[C@H](C)[C@H](NC(=O)c1cccc(Cn2ccnc2)c1)C(=O)Nc1nccs1`, for which the Ki in experiment [1] was found to be 42 µM. Moreover, the inhibition in experiment [2] turned out to be 17%; in experiment [4] it was 4%. Further, the outcome in experiment [3] was inactive.
For `CC[C@H](C)[C@H](NC(=O)c1cccc(Cn2ccnc2)c1)C(N)=O`, the inhibition entry in experiment [2] and in experiment [4] was “inactive” throughout. Moreover, the result in experiment [3] was inactive.
In experiment [1], `CC[C@H](C)[C@H](NC(=O)c1cccc(Cn2ccnc2)c1)C(=O)NNS(=O)(=O)c1ccccc1` returned an inhibition constant Ki above 100 µM. Besides, the inhibition worked out at 18% in experiment [2] and 6% in experiment [4]. In addition, the outcome in experiment [3] was inactive.
For the compound `CC[C@H](C)[C@H](NC(=O)c1cccc(Cn2ccnc2)c1)C(=O)NNC(=O)OC(C)(C)C`, the inhibitory constant (Ki) in experiment [1] is above 100 µM. Also, in experiment [3], the result was inactive.
As to `CC[C@H](C)[C@H](NC(=O)c1cccc(Cn2ccnc2)c1)C(=O)NNS(=O)(=O)c1ccc(C)cc1`, in experiment [1], the affinity corresponds to a Ki of 29 µM. Besides, the inhibition was 20% in experiment [2] and 4% in experiment [4]. In addition, the outcome in experiment [3] was inactive.
In experiment [1], `CC[C@H](C)[C@H](NC(=O)c1cccc(Cn2ccnc2)c1)C(=O)NNS(=O)(=O)c1ccc(OC)cc1` came in with an inhibition constant (Ki) of 9.2 µM. For the same compound, the inhibition in experiment [2] came to 20%; in experiment [4], 3%. For the same compound, the result in experiment [3] was inactive.
Turning to `CCCCS(=O)(=O)NC(=O)[C@@H](NC(=O)c1cccc(Cn2ccnc2)c1)[C@@H](C)CC`, the affinity in experiment [1] corresponds to a Ki of 9.9 µM. Also, the outcome in experiment [3] was inactive.
`CCCCS(=O)(=O)NNC(=O)[C@@H](NC(=O)c1cccc(Cn2ccnc2)c1)[C@@H](C)CC` returned an inhibition constant (Ki) in experiment [1] above 100 µM. Further, the outcome in experiment [3] was inactive.
For the compound `CC[C@H](C)[C@H](NC(=O)c1cccc(Cn2ccnc2)c1)C(=O)NO`, the inhibition in experiment [2] stood at 4%. Moreover, the result in experiment [3] was inactive. Further, the inhibition entry in experiment [4] was “inactive”.
On to `CC[C@H](C)[C@H](NC(=O)c1cccc(Cn2ccnc2)c1)C(=O)O`, for which, in experiment [3], the outcome was inactive. The compound further displayed a Ki in experiment [5] of 47 µM.
`CC[C@H](C)[C@H](NC(=O)c1cccc(Cn2ccnc2)c1)C(=O)NC#N`: the values for the inhibition in experiment [2] and in experiment [4] were 9% and 6%, respectively. Also, in experiment [3], the outcome was inactive.
In the same order, the values of `CC[C@H](C)[C@H](NC(=O)c1cccc(Cn2ccnc2)c1)C(=O)NCC(F)(F)F` are 14%, 6% and “inactive”.
`CCCCNC(=O)[C@@H](NC(=O)c1cccc(Cn2ccnc2)c1)[C@@H](C)CC`: the inhibition in experiment [2] was 3%. For the same compound, the outcome in experiment [3] was inactive. The inhibition result in experiment [4] is “inactive”.
Compound `CC[C@H](C)[C@H](NC(=O)c1cccc(Cn2ccnc2)c1)C(=O)NNS(=O)(=O)c1c(C)cc(C)cc1C` had an inhibition constant (Ki) in experiment [1] of 8.5 µM. Besides, the values for the inhibition in experiment [2] and in experiment [4] were 27% and 10%, respectively. For the same compound, the result in experiment [3] was inactive.
In experiment [1], `CCCCCS(=O)(=O)NNC(=O)[C@@H](NC(=O)c1cccc(Cn2ccnc2)c1)[C@@H](C)CC` registered an inhibition constant (Ki) above 100 µM. Besides, the result in experiment [3] was inactive.
Turning to `CC[C@H](C)[C@H](NC(=O)c1cccc(Cn2ccnc2)c1)c1nn[nH]n1`, the inhibition result in experiment [2] and in experiment [4] was “inactive” in each case. Also, the result in experiment [3] was inactive.
Take `CC[C@H](C)[C@H](NC(=O)c1cccc(Cn2ccnc2)c1)C(=O)NS(=O)(=O)c1ccccc1`: the Ki in experiment [1] was found to be 18 µM. The inhibition in experiment [2] came out at 24%; in experiment [4], 5%. In addition, the result in experiment [3] was inactive.
